Results taken from PubChem BioAssay (NCI).
“And” between values parts separate entries of the source, which are not always exact repeats. Equal values may be shown once.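 Compound exposure: 48 hours, 5 concentrations, 96-well plates. At the GI50, growth is halved. TGI: total growth inhibition.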

Tests used:
Assay in all cases: growth of human tumour cells (NCI), 48 h
RPMI-8226 leukemia = system: RPMI-8226 leukemia
NCI-H522 lung = system: NCI-H522 lung
HOP-92 NSCLC = system: HOP-92 NSCLC
SK-MEL-5 melanoma = system: SK-MEL-5 melanoma
HL-60(TB) leukemia = system: HL-60(TB) leukemia
UACC-257 melanoma = system: UACC-257 melanoma
HCT-116 colon = system: HCT-116 colon
NCI-H23 lung = system: NCI-H23 lung
UO-31 renal = system: UO-31 renal
ACHN renal = system: ACHN renal

Structure (SMILES) | GI50 (RPMI-8226 leukemia) [µM] | TGI (RPMI-8226 leukemia) [µM] | GI50 (NCI-H522 lung) | TGI (NCI-H522 lung) | GI50 (HOP-92 NSCLC) [µM] | TGI (HOP-92 NSCLC) [µM] | GI50 (SK-MEL-5 melanoma) | TGI (SK-MEL-5 melanoma) | GI50 (HL-60(TB) leukemia) [µM] | TGI (HL-60(TB) leukemia) [µM] | GI50 (UACC-257 melanoma) [µM] | TGI (UACC-257 melanoma) [µM] | GI50 (HCT-116 colon) [µM] | TGI (HCT-116 colon) [µM] | GI50 (NCI-H23 lung) [µM] | TGI (NCI-H23 lung) [µM] | GI50 (UO-31 renal) [µM] | TGI (UO-31 renal) [µM] | GI50 (ACHN renal) [µM] | TGI (ACHN renal) [µM]
O=c1c2c(=NCCCN3CCCC3)cc3c(=O)n(CCCN4CCCC4)c(=O)c4c(NCCCN5CCCC5)cc(c(O)n1CCCN1CCCC1)c2c4-3 | 4.39 | 45.8 | 1.44 µM | 5.53 µM | 2.15 | 18.8 | 2.67 µM | 7.17 µM | 11.2 | 73.5 | 2.98 | 8.77 | 2.01 | 6.43 | 5.43 | 24.1 | 4.5 | 22 | 2.55 | 26.4
O=C(O)C(O)C(O)C1[O][Sb][O]C1CO (configuration not stated) | > 100 | > 100 | > 100 µM and 14 µM | > 100 µM and 38.9 µM | > 100 | > 100 | 27.2 µM and 12.7 µM | > 100 µM and 30.7 µM | > 53.1 | > 100 | > 100 | > 100 | > 100 | > 100 | > 100 | > 100 | > 100 | > 100 | > 100 | > 100
CCCC/C(C)=N/NC(N)=S |  | > 100 |  | > 100 µM |  | > 100 |  | > 100 µM |  | > 100 |  | > 100 |  | > 100 |  | > 100 |  | > 100 |  | > 100
CN1C=CN(Cc2ccc(-c3ccccn3)nc2)[CH-]1.CN1C=CN(Cc2ccc(-c3ccccn3)nc2)[CH-]1.[Au+3] | 1.34 | 20.1 | 0.104 µM | 0.494 µM | 3.2 | 10.2 | 1.36 µM | 17.8 µM | 1.22 | 6.84 | 1.52 | 7.47 | 2.4 | 10.9 | 5.37 | > 100 | 22 | > 73.6 | 14.6 | > 100
COC(=N)/C(=C1\OC(N)=C(c2ccc(Cl)cc2)C1=O)c1ccc(Cl)cc1 |  | > 100 |  | > 100 µM |  | > 100 |  | > 100 µM |  | > 100 |  | > 100 |  | > 100 |  | > 100 |  | > 100 |  | > 100
CC(=O)OCC1OC(O[C@@H]2C[C@H]3C(C)(C)[C@H](OC(C)=O)CC[C@]3(C)[C@H]3CC[C@@H]4[C@]5(CC[C@@]4(C)[C@@]32C)O[C@@H]([C@H](O)C(C)(C)O)C[C@@H]5C)C(O)C(O)C1O (some centres not stated) | 3.37 | 19 | 7.1 µM | 21.2 µM | 10 | 21.6 | 10.7 µM | 22.5 µM | 2.93 | 10.2 | 11.4 | 24 | 3.81 | 15.1 | 12.9 | 26.9 | 7.85 | 20.8 | 9.23 | 21.3
COc1cc(SC)ccc1C(=O)N1CCCC(C)C1 (configuration not stated) | 69.2 | > 100 | > 100 µM | > 100 µM | 95.7 | > 100 | 33.3 µM | > 100 µM | 75.2 | > 100 | 78.9 | > 100 | > 100 | > 100 | 70 | > 100 | > 100 | > 100 | > 100 | > 100
Cc1cc(C#Cc2ccccc2)ccc1-n1c(/C=C/c2ccc(O)cc2)nc2ccccc2c1=O | 2.33 | > 100 | 2.26 µM | 27.3 µM | 2.5 | 7.26 | 1.77 µM | 3.83 µM | 1.66 | 4.69 | 4.18 | 56.3 | 2.66 | 11 | 3.62 | > 100 | 2.06 | 7.65 | 2.46 | 8.52
CC1=CC(=O)c2[nH]c3ccccc3c2C1=O |  | 14.7 | 3.82 µM | 7.24 µM | 3.98 | 7.36 | 4.22 µM | 7.66 µM | 4.06 | 9.85 | 4.57 | 8.58 | 4.44 | 7.93 | 3.69 | 7.28 | 4 | 7.4 | 4.14 | 7.54
Cc1ccc(NC(=O)CCC(=O)C(C#N)c2ccc(Cl)cc2)cc1C (configuration not stated) |  | > 100 |  | > 100 µM |  | > 100 |  | > 100 µM |  | > 100 |  | > 100 |  | > 100 |  | > 100 |  | > 100 |  | > 100
COc1ccccc1OCC(O)CO (configuration not stated) | > 100 | > 100 | > 100 µM | > 100 µM | > 100 | > 100 | > 100 µM | > 100 µM | > 100 | > 100 | > 100 | > 100 | > 100 | > 100 | > 100 | > 100 | > 100 | > 100 | > 100 | > 100
C[C@@H]1CC[C@H]2C(CN3CCN(CC4=C(C(F)(F)F)O[C@@H]5O[C@@]6(C)CC[C@H]7[C@H](C)CC[C@@H]4[C@@]57OO6)CC3)=C(C(F)(F)F)O[C@@H]3O[C@@]4(C)CC[C@@H]1[C@]32OO4 | 0.43 |  | 2.78 µM | > 27 µM | 5.15 | > 100 | 2.96 µM | > 100 µM | 0.382 |  | 1.95 | > 31.5 | 0.262 | > 35.9 | 2.07 | > 100 | 2.67 | 85.8 | 2.61 | > 27.2
